# Laboratory results published in US20230235374A1, “High Throughput Assays for Detecting Translation Readthrough Inducers” (The Trustees of the University of Pennsylvania, priority 2021, published 2023).
# Assays:
# [1] = test system: Cy5-hRF1.hRF3.GTP binding to Stop-POST5; experiment: smFRET Cy5-hRF1.hRF3.GTP binding to Stop-POST5; set-up: species or system human; conditions: ataluren 1 mM, FIG. 15C
# Excerpt: Several important results have been obtained with Cy5-heRF1 which further elucidate the mechanism of termination shown in FIGS. 14A and 14B. Cy5-heRF1 forms a catalytically active RFC with unlabeled heRF3, which, when added to the Stop-POST5 complex, generated a transient FRET signal with FKVRQ-tRNA^Gln(Cy3) bound in the P-site (FIGS. 15A and 15B).
# [2] = test system: POST5 complex (eRF1 & 3 peptide release); experiment: Fluorometer anisotropy measurement of POST5 complex Stop IRES-Lys*; format: biochemical; conditions: 0.1 μM POST5, eRF1 0.1 μM, eRF3 0.2 μM, GTP 2.0 mM, 25° C.
# Method: Fluorometer measurements of POST5 complex Stop IRES-Lys* included the following treatment methods and components:
# POST5 complex was treated with ternary complexes of release factor 1 and 3 and GTP. Lys was labeled with the fluorescent label Atto647. Conditions for the assay were as follows: at 25° C., Buffer condition included 0.1 μM POST 5. Release factor 1 and 3 (eRF1 & 3) POST 5 condition included 0.1 μM POST5; eRF1 at 0.1 μM; eRF3 at 0.2 μM; and GTP at 2 mM. Release factor 1 and 3 (eRF1 & 3) POST 5 and ataluren condition included 0.1 μM POST5; eRF1 at 0.1 μM; eRF3 at 0.2 μM; GTP at 2.0 mM; and Ataluren at […].
# 80S.IRES complex = experiment: [3H]-AzAt photoaffinity labeling of 80S.IRES complex; format: binding, shrimp (Artemia salina); conditions: FIG. 2C
# Method: (§1) Photoaffinity labeling with [^3H]-AzAt. Samples in Buffer 4, typically 20 μL, were incubated in the dark (20 min for Stop-POST5 and 80S-IRES complexes, 2 min for release factors) with various concentrations of [^3H]-AzAt at 37° C., transferred to a UV-transparent cuvette which was covered with parafilm to prevent evaporation, and irradiated in a Rayonet photochemical reactor equipped with 300 nm UV lamps for 5 min at room temperature. This was followed by quenching with 2 mM DTT at 37° C. for 5 min under ambient light. The irradiation time gave complete photolysis of the phenyl azide moiety in AzAt. Photolysis was also complete at 5 min in the presence of 1 mM ataluren, ruling out internal filtering effects.
# Stop-POST5 and 80S-IRES complexes. 1 μM solutions of either Stop-POST5 or 80S-S.IRES, determined by A260, were photolabeled by [^3H]-AzAt. The sample was then either directly purified by ultracentrifugation through a sucrose cushion to determine the photoincorporation stoichiometry in the complex, or subjected to phenol/chloroform extraction to determine the photoincorporation stoichiometry in the total RNA. […]
# eRF3 = target: T1, eRF3 (Saccharomyces cerevisiae, UniProt P05453); experiment: [3H]-AzAt photoaffinity labeling of eRF3; format: binding; conditions: near linear response to AzAt concentration
# T1 construct: amino acid residues (166-685) of the eRF3 open reading frame; made in house; host or cells: E. coli BL21(DE3) CodonPlus
# T1 sequence (P05453 166-685): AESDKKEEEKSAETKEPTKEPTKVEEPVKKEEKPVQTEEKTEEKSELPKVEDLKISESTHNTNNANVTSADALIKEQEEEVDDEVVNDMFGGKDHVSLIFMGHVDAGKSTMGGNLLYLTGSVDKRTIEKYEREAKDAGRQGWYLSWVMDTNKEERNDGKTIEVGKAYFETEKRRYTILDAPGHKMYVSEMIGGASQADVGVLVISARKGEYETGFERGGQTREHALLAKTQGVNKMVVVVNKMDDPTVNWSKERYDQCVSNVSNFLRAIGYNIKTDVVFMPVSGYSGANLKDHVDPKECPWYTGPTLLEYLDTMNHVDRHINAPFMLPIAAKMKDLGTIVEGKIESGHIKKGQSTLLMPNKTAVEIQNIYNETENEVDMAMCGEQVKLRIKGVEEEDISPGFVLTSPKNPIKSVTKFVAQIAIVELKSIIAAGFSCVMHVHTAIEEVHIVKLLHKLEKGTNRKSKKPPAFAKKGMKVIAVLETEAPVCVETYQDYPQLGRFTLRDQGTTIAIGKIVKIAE
# Method: as §1
# Photoaffinity labeling of release factors. Solutions containing eRF1 (10 μM), eRF3 (20 μM) and 1 mM GMPPMP were pre-incubated at 37° C. for 2 min to form the ternary complex prior to photolabeling with [^3H]-AzAt. After quenching, reaction mixtures were loaded onto a 4-15% mini protean SDS-PAGE gel for protein separation and isolation. Gel slices containing eRF1 or eRF3, as shown by Coomassie Blue R250 staining, were crushed and the radioactivity was extracted in extraction buffer (50 mM Tris-HCl, 150 mM NaCl, and 0.1 mM EDTA; pH 7.5) by vigorously shaking at 70° C. for 30 min. The data fitting was performed using the software Prism. […]
# Stop-POST5 complex = experiment: [3H]-AzAt photoaffinity labeling of Stop-POST5 complex; format: binding, shrimp (Artemia salina)
# Method: as §1
# Stop-POST5 and 80S-IRES complexes. 1 μM solutions of either Stop-POST5 or 80S-S.IRES, determined by A260, were photolabeled by [^3H]-AzAt. The sample was then either directly purified by ultracentrifugation through a sucrose cushion to determine the photoincorporation stoichiometry in the complex, or subjected to phenol/chloroform extraction to determine the photoincorporation stoichiometry in the total RNA. To determine the photoincorporation background arising from incomplete removal of noncovalently bound photolyzed AzAt, AzAt was prephotolysed for 5 min before adding to the complex, followed by the 20 min incubation in dark at 37° C. and subsequent sucrose cushion purification or RNA extraction as described above.
structure (smiles),measurement,setting,value
O=C(O)c1cccc(-c2noc(-c3ccccc3F)n2)c1 [Ataluren],effect on rate of Cy5-hRF1.hRF3.GTP binding to Stop-POST5,[1],strongly inhibited
same,effect on peptide release (fluorescence anisotropy change),[2],inhibited peptide release
[N-]=[N+]=Nc1ccc(-c2nc(-c3cccc(C(=O)O)c3)no2)cc1 [AzAt],"photoincorporation stoichiometry into 80S.IRES, lower vs. Stop-POST5",80S.IRES complex,25%
same,nature of photo-incorporation into eRF3,eRF3,nonspecific binding
same,saturation labeling of Stop-POST5,Stop-POST5 complex,1.2 /Stop-POST5
same,share of photoincorporation found in RNA components of Stop-POST5,Stop-POST5 complex,More than 80%
same,"KA, AzAt photoincorporation into Stop-POST5","Stop-POST5 complex; fit to eq (1), FIG. 2B",120 ± 60 µM
same,share of RNA photoincorporation found within 18S and 26S rRNA,Stop-POST5 complex; urea-PAGE analysis,> 90%
